These are literature values, as cited in patent EP1954843B1, “LEACHING PROCESS IN THE PRESENCE OF HY[…] FOR THE RECOVERY OF A VALUE METAL FROM AN ORE” (Anglo Operations Limited, priority 2005, dated 2007).

SMILES strings stand for the structures.

For this series the following is noted: at 80°C.

With `[Cl-].[Cl-].[Zn+2]` [zinc chloride], the “soluble to the extent of” value is “ca. 84.4 g/100g saturated solution”.
